# According to the supplement of paper PMC10307832:
# Assays:
# Experiment in all cases: relative viability (nuclei count vs DMSO), 5 days (fraction); higher = more cells survive
# QS11 + Olaparib = compound: C1CC2=C(C1)C=C(C=C2)OC3=NC(=C4C(=N3)N(C=N4)CC5=CC=C(C=C5)C6=CC=CC=C6)N[C@@H](CC7=CC=CC=C7)CO [QS11] + O=C(c1cc(Cc2n[nH]c(=O)c3ccccc23)ccc1F)N1CCN(C(=O)C2CC2)CC1 [Olaparib] (partner 8 µM)
# Method in brief: (§1)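 Relative viability divides the nuclei count in treated wells by that in vehicle wells. Lung cancer cell lines were seeded in 1536-well plates, dosed by pin tool the next day, and fixed and stained after 5 days in one step with final 0.05% Triton X-100, 1% formaldehyde and 1 ug/ml Hoechst. Dosing was a single drug or a fixed anchor-drug dose plus five library-drug doses (not always all listed) in √10 steps, and values are medians of duplicate plates imaged at 4×.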
# AZ628 + Pictilisib = compound: CC1=C(C=C(C=C1)NC(=O)C2=CC(=CC=C2)C(C)(C)C#N)NC3=CC4=C(C=C3)N=CN(C4=O)C [AZ628] + CS(=O)(=O)N1CCN(Cc2cc3nc(-c4cccc5[nH]ncc45)nc(N4CCOCC4)c3s2)CC1 [Pictilisib] (partner 1 µM)
# Method in brief: as §1
# AZ628 + Pemetrexed = compound: CC1=C(C=C(C=C1)NC(=O)C2=CC(=CC=C2)C(C)(C)C#N)NC3=CC4=C(C=C3)N=CN(C4=O)C [AZ628] + Nc1nc2[nH]cc(CCc3ccc(C(=O)N[C@@H](CCC(=O)O)C(=O)O)cc3)c2c(=O)[nH]1 [Pemetrexed] (partner 0.2 µM)
# Method in brief: as §1
# [1] = compound: C[As](C)SC[C@H](NC(=O)CC[C@H](N)C(=O)O)C(=O)NCC(=O)O [Darinaparsin] + CC(=O)Nc1cccc(-n2c(=O)n(C3CC3)c(=O)c3c(Nc4ccc(I)cc4F)n(C)c(=O)c(C)c32)c1 [Trametinib] (partner 0.02 µM)
# Method in brief: as §1
Cell Line,relative viability (QS11 + Olaparib; first compound 0.08 µM),relative viability (QS11 + Olaparib; first compound 0.253 µM),relative viability (QS11 + Olaparib; first compound 0.8 µM),relative viability (QS11 + Olaparib; first compound 2.53 µM),relative viability (QS11 + Olaparib; first compound 8 µM),relative viability (AZ628 + Pictilisib; first compound 0.08 µM),relative viability (AZ628 + Pictilisib; first compound 0.253 µM),relative viability (AZ628 + Pictilisib; first compound 0.8 µM),relative viability (AZ628 + Pictilisib; first compound 2.53 µM),relative viability (AZ628 + Pictilisib; first compound 8 µM),relative viability (AZ628 + Pemetrexed; first compound 0.08 µM),relative viability (AZ628 + Pemetrexed; first compound 0.253 µM),relative viability (AZ628 + Pemetrexed; first compound 0.8 µM),relative viability (AZ628 + Pemetrexed; first compound 2.53 µM),relative viability (AZ628 + Pemetrexed; first compound 8 µM),relative viability ([1]; first compound 0.08 µM),relative viability ([1]; first compound 0.8 µM),relative viability ([1]; first compound 2.53 µM),relative viability ([1]; first compound 8 µM)
201T,0.876,1.05,0.699,0.898,0.718,0.688,0.659,0.691,0.71,0.723,0.347,0.345,0.308,0.339,0.352,0.777,0.728,0.711,0.751
A549,0.197,0.339,0.37,0.284,0.574,0.473,0.378,0.311,0.406,0.138,–,–,–,–,–,–,–,–,–
A-427,0.756,0.67,–,0.656,0.559,0.43,0.364,0.333,0.177,0.132,1.12,0.97,1.01,0.957,0.609,0.721,0.663,0.758,0.796
ABC-1,0.655,0.833,0.85,0.563,1.04,0.764,0.828,0.677,0.643,0.486,–,–,–,–,–,–,–,–,–
BEN,0.667,1.1,1.03,1.01,0.992,0.621,0.523,0.487,0.49,0.458,0.776,0.614,0.737,0.716,0.749,1.18,0.998,0.991,1.12
CAL-12T,0.722,0.693,0.67,0.727,0.603,0.393,–,0.416,0.298,0.505,1.37,1.18,1.15,1.33,0.716,0.333,0.376,0.383,0.306
COR-L23,0.302,0.322,0.303,0.271,0.288,0.767,0.73,0.651,0.653,0.346,0.22,0.23,0.198,0.219,0.21,0.699,0.581,0.538,0.681
COR-L 105,0.764,0.56,0.674,0.716,0.66,0.466,0.418,0.384,0.353,0.334,1.35,1.03,1.18,1.16,1.03,0.473,0.456,0.427,0.45
Calu-6,0.626,0.613,0.603,0.638,0.59,0.896,0.64,0.409,0.553,0.144,–,–,–,–,–,–,–,–,–
ChaGo-K-1,–,0.448,0.352,0.397,0.387,0.889,–,0.474,0.756,0.743,0.27,0.277,0.262,0.298,0.243,0.914,0.862,0.785,0.984
EBC-1,0.758,0.813,0.675,0.644,0.68,0.341,0.299,0.271,0.233,0.201,–,–,–,–,–,–,–,–,–
EKVX,0.829,0.768,0.715,0.822,1.01,0.487,0.489,0.471,0.472,0.333,0.419,0.422,0.338,0.407,0.312,0.339,0.33,0.344,0.333
EMC-BAC-2,0.461,0.492,0.464,0.492,0.44,0.511,0.476,0.455,0.459,0.466,0.481,0.494,0.476,0.516,0.589,0.909,0.802,1.01,0.887
EPLC-272H,0.707,0.888,0.716,0.808,0.505,0.273,0.232,0.236,0.266,0.231,0.229,0.309,0.265,0.293,0.248,0.292,0.311,0.31,0.305
H3255,0.548,0.588,0.456,0.567,0.534,0.457,0.499,0.463,0.398,0.225,0.563,0.486,0.597,0.537,0.504,0.595,0.812,0.574,0.62
HARA,0.729,–,0.473,0.919,0.803,0.331,0.379,0.283,0.337,0.287,0.255,0.221,0.226,0.231,0.193,0.825,–,0.733,0.638
HCC-15,0.668,0.79,0.61,0.735,0.634,0.729,0.533,0.52,0.553,0.33,0.231,0.204,0.211,0.226,0.206,0.409,0.321,0.27,0.415
HCC-44,1.05,1.09,0.597,0.989,0.987,0.547,0.512,0.427,0.354,0.286,0.629,0.682,0.643,0.706,0.679,1.11,1.2,0.942,1.1
HCC-78,0.665,1.02,0.83,0.859,0.806,0.373,0.21,0.211,0.228,0.231,0.95,0.905,0.892,0.89,0.915,0.823,0.673,0.879,1.24
HCC-366,0.41,0.467,–,0.452,0.212,0.15,0.18,0.0993,0.126,0.0787,0.156,0.215,0.225,0.169,0.161,0.393,–,0.336,0.378

Cell Line,relative viability (QS11 + Olaparib; first compound 0.08 µM),relative viability (QS11 + Olaparib; first compound 0.253 µM),relative viability (QS11 + Olaparib; first compound 0.8 µM),relative viability (QS11 + Olaparib; first compound 2.53 µM),relative viability (QS11 + Olaparib; first compound 8 µM),relative viability (AZ628 + Pictilisib; first compound 0.08 µM),relative viability (AZ628 + Pictilisib; first compound 0.253 µM),relative viability (AZ628 + Pictilisib; first compound 0.8 µM),relative viability (AZ628 + Pictilisib; first compound 2.53 µM),relative viability (AZ628 + Pictilisib; first compound 8 µM),relative viability (AZ628 + Pemetrexed; first compound 0.08 µM),relative viability (AZ628 + Pemetrexed; first compound 0.253 µM),relative viability (AZ628 + Pemetrexed; first compound 0.8 µM),relative viability (AZ628 + Pemetrexed; first compound 2.53 µM),relative viability (AZ628 + Pemetrexed; first compound 8 µM),relative viability ([1]; first compound 0.08 µM),relative viability ([1]; first compound 0.8 µM),relative viability ([1]; first compound 2.53 µM),relative viability ([1]; first compound 8 µM)
HCC-827,0.587,0.712,0.656,0.775,0.606,0.98,0.994,0.988,0.984,0.826,0.258,0.209,0.256,0.314,0.226,0.578,0.502,0.566,0.508
HOP-62,0.477,0.46,0.31,0.319,0.382,0.607,0.6,0.511,0.441,0.211,0.311,0.343,0.305,0.409,0.271,0.401,0.385,0.316,0.428
IA-LM,1,0.924,0.706,0.741,0.78,0.352,0.231,0.155,0.145,0.115,–,–,–,–,–,–,–,–,–
LC-2-ad,0.668,0.719,0.551,0.706,0.781,0.472,0.344,0.122,0.261,0.162,0.3,0.29,0.262,0.274,0.266,0.975,0.903,0.815,1.08
LCLC-103H,0.799,0.849,–,0.791,0.814,0.554,0.587,0.632,0.55,0.583,0.423,0.464,0.445,0.437,0.402,0.69,0.659,0.675,0.765
LK-2,0.569,0.764,1.03,0.734,0.856,0.577,0.824,0.443,0.481,0.311,0.273,0.221,0.263,0.343,0.15,0.936,0.61,0.847,0.878
LOU-NH91,0.893,0.9,0.876,0.937,0.998,0.582,0.491,0.492,0.501,0.452,0.345,0.384,0.332,0.36,0.339,0.848,0.747,0.851,0.822
LU99A,0.253,0.311,0.27,0.258,0.253,0.274,0.306,0.362,0.331,0.205,0.191,0.186,0.215,0.215,0.175,0.529,0.62,0.545,0.55
LXF-289,1.03,1.1,0.823,0.95,0.963,0.779,0.712,0.754,0.654,0.401,0.939,0.722,0.893,0.866,0.678,0.768,0.667,0.677,0.697
NCI-H23,0.297,0.226,0.245,0.269,0.264,0.407,0.319,0.261,0.312,0.246,0.616,0.464,0.419,0.45,0.396,0.402,0.339,0.43,0.409
NCI-H322M,0.715,0.947,0.802,0.846,1.06,0.554,0.473,0.482,0.469,0.412,0.726,0.664,0.604,0.642,0.558,0.525,0.505,0.495,0.511
NCI-H522,0.603,0.755,0.665,0.588,0.772,–,–,–,–,–,0.903,1.02,0.874,0.93,0.645,0.704,0.888,0.682,0.816
NCI-H727,0.653,0.661,0.654,0.589,0.753,0.314,0.199,0.184,0.281,0.28,–,–,–,–,–,0.372,0.397,0.381,0.383
NCI-H1299,0.955,1.03,0.848,0.928,0.793,0.643,0.464,0.306,0.283,0.167,–,–,–,–,–,–,–,–,–
NCI-H1563,–,–,–,–,–,0.613,0.667,0.657,0.658,0.616,0.773,0.827,0.86,0.756,0.764,–,–,–,–
NCI-H1648,0.812,0.413,0.727,0.77,1.09,–,–,–,–,–,1.06,0.702,0.614,0.549,0.642,–,0.445,–,0.408
NCI-H1703,0.411,0.363,0.597,0.501,0.551,0.231,0.235,0.235,0.197,0.251,–,–,–,–,–,–,–,–,–
NCI-H2342,0.352,0.395,0.494,0.479,0.441,–,–,–,–,–,0.89,0.683,0.761,0.702,0.793,0.966,0.843,0.789,0.73
SW 900,0.941,1.03,0.615,0.739,0.511,–,–,–,–,–,0.495,0.489,0.471,0.461,0.451,0.73,–,0.813,0.985
